Laboratory results reported in patent US20090035784A1 (priority 2004, published 2009).
“Also recorded” adds a separate entry of the source. Read-outs that look alike come from different tables or passages of the source.

Experiments:
Format in all cases: cell-based
[1] = molecular target: T1, NPC1L1 (Homo sapiens, UniProt Q9UHC9, T1073A)
T1 construct: expressed in transfected cells; host or cells: Huh7-derived cells; the L1 3+ line (NPC1L1-overexpressing clone 3) is proposed for screening
T1 sequence (Q9UHC9 22-1359 T1073A): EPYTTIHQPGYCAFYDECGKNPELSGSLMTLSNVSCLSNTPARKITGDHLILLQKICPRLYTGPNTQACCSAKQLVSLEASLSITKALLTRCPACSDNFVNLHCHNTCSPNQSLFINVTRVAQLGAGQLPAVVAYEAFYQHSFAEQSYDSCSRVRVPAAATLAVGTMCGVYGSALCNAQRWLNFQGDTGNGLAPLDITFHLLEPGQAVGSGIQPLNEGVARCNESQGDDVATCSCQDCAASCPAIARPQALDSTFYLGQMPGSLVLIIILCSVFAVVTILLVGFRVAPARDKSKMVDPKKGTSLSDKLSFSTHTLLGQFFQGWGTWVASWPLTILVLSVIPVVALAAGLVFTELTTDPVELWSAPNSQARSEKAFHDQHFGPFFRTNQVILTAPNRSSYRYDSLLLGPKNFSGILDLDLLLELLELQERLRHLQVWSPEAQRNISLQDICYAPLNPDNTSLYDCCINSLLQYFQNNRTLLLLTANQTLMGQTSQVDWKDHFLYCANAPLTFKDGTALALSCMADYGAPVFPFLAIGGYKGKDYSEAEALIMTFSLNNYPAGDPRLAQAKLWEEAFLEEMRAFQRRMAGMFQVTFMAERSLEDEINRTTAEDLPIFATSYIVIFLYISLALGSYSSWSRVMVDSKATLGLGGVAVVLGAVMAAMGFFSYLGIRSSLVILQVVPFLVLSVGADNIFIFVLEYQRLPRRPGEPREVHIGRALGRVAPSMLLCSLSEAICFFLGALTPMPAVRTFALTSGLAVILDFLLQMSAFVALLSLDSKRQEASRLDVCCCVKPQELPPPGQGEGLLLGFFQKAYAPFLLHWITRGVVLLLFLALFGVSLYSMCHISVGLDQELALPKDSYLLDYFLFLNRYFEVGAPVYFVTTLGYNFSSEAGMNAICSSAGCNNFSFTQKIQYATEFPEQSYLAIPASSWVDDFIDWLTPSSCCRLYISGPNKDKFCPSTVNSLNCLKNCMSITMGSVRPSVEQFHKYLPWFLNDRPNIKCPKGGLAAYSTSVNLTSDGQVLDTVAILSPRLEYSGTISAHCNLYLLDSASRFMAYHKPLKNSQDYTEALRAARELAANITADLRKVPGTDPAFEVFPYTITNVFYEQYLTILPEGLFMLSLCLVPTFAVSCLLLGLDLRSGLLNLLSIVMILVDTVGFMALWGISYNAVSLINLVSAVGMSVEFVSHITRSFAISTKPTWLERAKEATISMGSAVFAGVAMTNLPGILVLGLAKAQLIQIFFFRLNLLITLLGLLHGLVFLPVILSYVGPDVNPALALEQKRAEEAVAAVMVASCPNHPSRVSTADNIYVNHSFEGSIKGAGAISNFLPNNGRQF

[2] = molecular target: T2, NPC1 (Homo sapiens, UniProt O15118); assay: Lysosomal cholesterol storage in normal human fibroblasts treated with inhibitor; settings: normal human fibroblasts incubated overnight, fluorescent cholesterol probe, FIG. 6 and 7
T2 construct: endogenous in cells; host or cells: normal human fibroblasts
T2 sequence (O15118 23-1278): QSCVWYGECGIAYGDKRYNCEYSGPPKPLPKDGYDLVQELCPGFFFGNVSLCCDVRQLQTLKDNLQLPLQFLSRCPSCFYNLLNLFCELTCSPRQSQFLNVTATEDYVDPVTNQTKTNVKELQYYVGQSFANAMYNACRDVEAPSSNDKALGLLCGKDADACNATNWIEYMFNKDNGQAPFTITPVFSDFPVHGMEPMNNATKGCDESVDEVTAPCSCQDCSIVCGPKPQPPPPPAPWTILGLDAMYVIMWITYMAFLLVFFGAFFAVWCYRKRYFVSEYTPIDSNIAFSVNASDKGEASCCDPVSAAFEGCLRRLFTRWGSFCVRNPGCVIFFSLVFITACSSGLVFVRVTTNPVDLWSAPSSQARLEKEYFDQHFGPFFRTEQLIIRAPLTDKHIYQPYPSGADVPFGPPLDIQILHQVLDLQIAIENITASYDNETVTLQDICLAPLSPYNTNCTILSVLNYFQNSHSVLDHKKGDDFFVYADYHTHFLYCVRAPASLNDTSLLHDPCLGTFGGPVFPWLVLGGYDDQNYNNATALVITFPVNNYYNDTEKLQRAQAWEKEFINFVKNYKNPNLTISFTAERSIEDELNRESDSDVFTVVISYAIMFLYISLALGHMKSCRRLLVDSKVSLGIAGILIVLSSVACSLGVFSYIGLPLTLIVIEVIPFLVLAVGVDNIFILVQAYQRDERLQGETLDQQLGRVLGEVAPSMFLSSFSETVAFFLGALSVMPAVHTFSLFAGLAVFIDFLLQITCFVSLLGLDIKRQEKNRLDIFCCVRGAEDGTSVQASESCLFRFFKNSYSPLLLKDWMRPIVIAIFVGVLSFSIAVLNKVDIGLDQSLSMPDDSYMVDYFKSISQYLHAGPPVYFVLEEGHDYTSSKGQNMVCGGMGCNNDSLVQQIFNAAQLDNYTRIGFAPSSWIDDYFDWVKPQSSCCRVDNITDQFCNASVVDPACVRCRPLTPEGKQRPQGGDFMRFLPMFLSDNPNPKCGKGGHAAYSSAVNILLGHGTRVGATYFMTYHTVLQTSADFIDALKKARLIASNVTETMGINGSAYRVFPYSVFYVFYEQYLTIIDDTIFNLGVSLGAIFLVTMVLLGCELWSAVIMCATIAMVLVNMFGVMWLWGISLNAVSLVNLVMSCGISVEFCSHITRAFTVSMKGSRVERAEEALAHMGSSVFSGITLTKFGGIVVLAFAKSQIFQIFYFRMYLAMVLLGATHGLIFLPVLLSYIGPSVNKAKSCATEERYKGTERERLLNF

[3] = molecular target: T1, NPC1L1; remark: listed apart in the source

## CC(=O)c1ccc(NC(=O)c2cccs2)cc1 [N-(4-acetylphenyl)-2-thiophenecarboxamide]
[1]
  identification as inhibitor of NPC1L1: NPC1L1 inhibitors have been identified

## COc1ccc(NC2=C(C)C(=O)CC2)cc1 [3-[(4-methoxyphenyl)amino]-2-methyl-2-cyclopenten-1-one]
[1]
  identification as inhibitor of NPC1L1: NPC1L1 inhibitors have been identified

## CCCC(=O)C1(c2ccccc2)CCNCC1.Cl [#5, 4-butyryl-4-phenylpiperidine hydrochloride]
[2]; hydrochloride
  NPC1 inhibition seen as lysosomal cholesterol build-up: distinguishable lysosomes filled with cholesterol
[2]; listed as 4-butyryl-4-phenylpiperidine, hydrochloride
  NPC1 inhibition seen as lysosomal cholesterol build-up: NPC1 inhibitor

## c1ccc2c(CN3CCNCC3)cccc2c1 [1-(1-naphthylmethyl)piperazine]
[1]
  identification as inhibitor of NPC1L1: NPC1L1 inhibitors have been identified

## Cl.N#CC1(c2ccccc2)CCNCC1 [#1, 4-Phenyl-4-piperidinecarbonitrile Hydrochloride]
[2]; hydrochloride
  NPC1 inhibition seen as lysosomal cholesterol build-up: did not demonstrate any NPC1 inhibition
[2]; listed as 4-cyano-4-phenylpiperidine, Hydrochloride
  NPC1 inhibition seen as lysosomal cholesterol build-up: weaker NPC1 inhibitor
[1]; Hydrochloride
  identification as inhibitor of NPC1L1: NPC1L1 inhibitors have been identified; also recorded: identified as an inhibitor of NPC1L1
[3]
  signal of NPC1L1 promoter upregulation (inhibition of the NPC1L1 protein): positive signal

## CC(=O)C1=C(Nc2ccccc2C)CCC1=O [2-acetyl-3-[(2-methylphenyl)amino]-2-cyclopenten-1-one]
[1]
  identification as inhibitor of NPC1L1: NPC1L1 inhibitors have been identified
[3]
  signal of NPC1L1 promoter upregulation (inhibition of the NPC1L1 protein): positive signal

## O=C1[C@H](CC[C@H](O)c2ccc(F)cc2)[C@@H](c2ccc(O)cc2)N1c1ccc(F)cc1 [Ezetamibe, reference compound]
[3]
  signal of NPC1L1 promoter upregulation (inhibition of the NPC1L1 protein): did not inhibit NPC1L1

## CC(Nc1ccccc1O)=C1C(=O)CSC1=O [3 {1-[(2-hydroxyphenyl)amino]ethylidene}-2,4(3H, 5H)-thiophenedione]
[1]
  identification as inhibitor of NPC1L1: NPC1L1 inhibitors have been identified
[3]
  signal of NPC1L1 promoter upregulation (inhibition of the NPC1L1 protein): positive signal

## CC1CCNCC1 [#2, 4-methylpiperidine]
[2]
  NPC1 inhibition seen as lysosomal cholesterol build-up: weaker NPC1 inhibitor

## CCCCN1CCCCC1C(=O)Nc1c(C)cccc1C (stereo not shown) [#7, 1-Butyl-N(2,6-diemethylphenyl)2 piperidine carboxamide]
[1]
  identification as inhibitor of NPC1L1: NPC1L1 inhibitors have been identified
[3]
  signal of NPC1L1 promoter upregulation (inhibition of the NPC1L1 protein): positive signal

## COc1ccccc1NC1=C(C)C(=O)CC1 [3-[(2-methoxyphenyl)amino]-2-methyl-2-cyclopenten-1-one]
[1]
  identification as inhibitor of NPC1L1: NPC1L1 inhibitors have been identified

## CC(Nc1ccccc1C)=C1C(=O)CSC1=O [3{1-[(2-methylphenyl)amino]ethylidene}-2,4(3H, 5H)-thiophenedione]
[1]
  identification as inhibitor of NPC1L1: NPC1L1 inhibitors have been identified
